Data published in PMC6330093 (Bioconjugate chemistry, 2017).

What was measured:
proteinase K = proteinase K (Parengyodontium album, UniProt P06873); experiment: HPLC-based proteolysis assay with proteinase K; type: in vitro ADME
[1] = variable temperature CD, 50 μM protein, 20 mM sodium phosphate buffer, pH 7

proteinase K, sequence (P06873 106-384, species assumed): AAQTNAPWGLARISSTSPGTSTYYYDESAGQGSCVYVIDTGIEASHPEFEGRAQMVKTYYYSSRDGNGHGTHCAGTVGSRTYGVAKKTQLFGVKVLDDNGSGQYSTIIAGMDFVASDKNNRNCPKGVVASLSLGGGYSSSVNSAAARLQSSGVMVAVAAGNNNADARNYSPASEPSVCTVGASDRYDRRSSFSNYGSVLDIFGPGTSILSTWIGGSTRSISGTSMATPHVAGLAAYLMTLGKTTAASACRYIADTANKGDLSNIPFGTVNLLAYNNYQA

## CC[C@H](C)[C@H](NC(=O)[C@H](Cc1c[nH]cn1)NC(=O)[C@H](CC(N)=O)NC(=O)[C@H](Cc1ccccc1)NC(=O)[C@H](Cc1ccc(O)cc1)NC(=O)[C@H](Cc1ccc(O)cc1)NC(=O)[C@@H](NC(=O)[C@H](CCCNC(=N)N)NC(=O)CNC(=O)[C@H](CO)NC(=O)[C@H](CO)NC(=O)[C@H](CCCNC(=N)N)NC(=O)[C@H](CCC(N)=O)NC(=O)[C@H](CCSC)NC(=O)[C@H](CCCNC(=N)N)NC(=O)[C@H](CCCCN)NC(=O)[C@H](CCC(=O)O)NC(=O)[C@H](Cc1c[nH]c2ccccc12)NC(=O)CNC(=O)[C@@H]1CCCN1C(=O)[C@@H]1CCCN1C(=O)[C@H](CC(C)C)NC(=O)[C@@H](N)CCCCN)C(C)C)C(=O)N[C@H](C(=O)N[C@@H](CC(N)=O)C(=O)N[C@@H](C)C(=O)N[C@@H](CO)C(=O)N[C@@H](CCC(N)=O)C(=O)N[C@@H](Cc1ccccc1)C(=O)N[C@@H](CCC(=O)O)C(=O)N[C@@H](CCCNC(=N)N)C(=O)N1CCC[C@H]1C(=O)N[C@@H](CO)C(=O)NCC(=O)O)[C@@H](C)O [16Q]
Proteinase K
  k, apparent proteolysis rate constant: 8.9 ±0.2 s^−1 × 10^3
[1]
  Tm (melting temperature): 56.6 ±0.1 °C

## CC[C@H](C)[C@H](NC(=O)[C@H](CCC(N)=O)NC(=O)[C@H](CC(N)=O)NC(=O)[C@H](Cc1ccccc1)NC(=O)[C@H](Cc1ccc(O)cc1)NC(=O)[C@H](Cc1ccc(O)cc1)NC(=O)[C@@H](NC(=O)[C@H](CCCNC(=N)N)NC(=O)CNC(=O)[C@H](CO)NC(=O)[C@H](CO)NC(=O)[C@H](CCCNC(=N)N)NC(=O)[C@H](CO)NC(=O)[C@H](CCSC)NC(=O)[C@H](CCCNC(=N)N)NC(=O)[C@H](CCCCN)NC(=O)[C@H](CCC(=O)O)NC(=O)[C@H](Cc1c[nH]c2ccccc12)NC(=O)CNC(=O)[C@@H]1CCCN1C(=O)[C@@H]1CCCN1C(=O)[C@H](CC(C)C)NC(=O)[C@@H](N)CCCCN)C(C)C)C(=O)N[C@H](C(=O)N[C@@H](CC(N)=O)C(=O)N[C@@H](C)C(=O)N[C@@H](CO)C(=O)N[C@@H](CCC(N)=O)C(=O)N[C@@H](Cc1ccccc1)C(=O)N[C@@H](CCC(=O)O)C(=O)N[C@@H](CCCNC(=N)N)C(=O)N1CCC[C@H]1C(=O)N[C@@H](CO)C(=O)NCC(=O)O)[C@@H](C)O [27Q]
Proteinase K
  k, apparent proteolysis rate constant: 10.8 ±0.2 s^−1 × 10^3
[1]
  Tm (melting temperature): 56.4 ±0.2 °C
